# Measured values: ChEMBL document CHEMBL5321290, “Discovery of the Diphenyl 6-Oxo-1,6-dihydropyridazine-3-carboxylate/carboxamide Analogue J27 for the Treatment of Acute Lung Injury and Sepsis by Targeting JNK2 and Inhibiting the JNK2-NF-κB/MAPK Pathway” (J Med Chem, 2023)
# Active and inactive are the calls of the source. The calls are words filed in the database; no cut-off is given here.
# Columns and labels:
# [1] = system: J774.A1; test: Antiinflammatory activity against mouse J774A.1 cells assessed as inhibition of LPS-stimulated IL6 release measured at 10 uM after 30 mins by ELISA relative to control; type: functional; details: J774.A1, 0.5 h
# [2] = system: J774.A1; test: Antiinflammatory activity against mouse J774A.1 cells assessed as inhibition of LPS-stimulated IL6 mRNA expression pretreated for 2 hrs followed by stimulated with LPS by RT-qPCR analysis; type: functional, cell-based; details: dose 2.5-10 µM
# [3] = system: J774.A1; test: Antiinflammatory activity against mouse J774A.1 cells assessed as inhibition of LPS-stimulated TNFalpha mRNA expression pretreated for 2 hrs followed by stimulated with LPS by RT-qPCR analysis; type: functional, cell-based; details: dose 2.5-10 µM
# [4] = system: Mus musculus; test: Antiinflammatory activity against LPS-induced acute lung injury C57 mouse model assessed as decrease in LPS-induced IL-6 level in blood at 20 mg/kg, po thrice at 12 hrs interval; type: functional, organism-based
# [5] = system: Mus musculus; test: Antiinflammatory activity against LPS-induced acute lung injury C57 mouse model assessed as decrease in LPS-induced TNFalpha level in blood at 20 mg/kg, po thrice at 12 hrs interval; type: functional, organism-based
# [6] = molecular target: Transcription factor p65 (Mus musculus) (UniProt Q04207); test: Inhibition of P65 entry into nucleus in mouse J774A.1 cells assessed as density quantification pretreated at 10 uM for 2 hrs followed by induced with LPS for 30 mins by immunofluorescence analysis; type: cell-based; details: J774.1, time 2.5 hrs
# [7] = molecular target: Mitogen-activated protein kinase 9 (Homo sapiens, UniProt P45984); test: Inhibition of JNK2 (unknown origin) assessed as inhibition rate at 10 uM by SPR analysis relative to control
# [8] = molecular target: T1, Mitogen-activated protein kinase kinase kinase 7 (Homo sapiens) (UniProt O43318); test: Inhibition of TAK1 (unknown origin) assessed as inhibition rate at 10 uM by SPR analysis relative to control
# T1 sequence (whole entry): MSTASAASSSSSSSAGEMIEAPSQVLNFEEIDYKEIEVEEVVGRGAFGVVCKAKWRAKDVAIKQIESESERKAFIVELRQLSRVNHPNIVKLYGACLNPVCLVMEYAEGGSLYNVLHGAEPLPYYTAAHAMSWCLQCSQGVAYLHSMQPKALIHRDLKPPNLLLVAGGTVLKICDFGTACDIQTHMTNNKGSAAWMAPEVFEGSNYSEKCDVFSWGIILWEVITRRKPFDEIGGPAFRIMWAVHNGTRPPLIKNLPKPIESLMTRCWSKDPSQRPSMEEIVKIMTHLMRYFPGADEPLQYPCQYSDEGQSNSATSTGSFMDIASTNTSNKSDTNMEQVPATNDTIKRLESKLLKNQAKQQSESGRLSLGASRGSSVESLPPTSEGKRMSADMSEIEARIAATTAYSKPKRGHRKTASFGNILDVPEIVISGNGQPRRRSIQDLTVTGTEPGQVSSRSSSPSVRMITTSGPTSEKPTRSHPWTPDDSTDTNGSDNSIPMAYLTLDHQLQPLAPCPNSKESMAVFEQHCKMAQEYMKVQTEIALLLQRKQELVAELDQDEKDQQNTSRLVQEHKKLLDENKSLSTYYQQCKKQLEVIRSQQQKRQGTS
# [9] = molecular target: T2, Inhibitor of nuclear factor kappa-B kinase subunit beta (Homo sapiens) (UniProt O14920); test: Inhibition of IKKbeta (unknown origin) assessed as inhibition rate at 10 uM by SPR analysis relative to control
# T2 sequence (whole entry): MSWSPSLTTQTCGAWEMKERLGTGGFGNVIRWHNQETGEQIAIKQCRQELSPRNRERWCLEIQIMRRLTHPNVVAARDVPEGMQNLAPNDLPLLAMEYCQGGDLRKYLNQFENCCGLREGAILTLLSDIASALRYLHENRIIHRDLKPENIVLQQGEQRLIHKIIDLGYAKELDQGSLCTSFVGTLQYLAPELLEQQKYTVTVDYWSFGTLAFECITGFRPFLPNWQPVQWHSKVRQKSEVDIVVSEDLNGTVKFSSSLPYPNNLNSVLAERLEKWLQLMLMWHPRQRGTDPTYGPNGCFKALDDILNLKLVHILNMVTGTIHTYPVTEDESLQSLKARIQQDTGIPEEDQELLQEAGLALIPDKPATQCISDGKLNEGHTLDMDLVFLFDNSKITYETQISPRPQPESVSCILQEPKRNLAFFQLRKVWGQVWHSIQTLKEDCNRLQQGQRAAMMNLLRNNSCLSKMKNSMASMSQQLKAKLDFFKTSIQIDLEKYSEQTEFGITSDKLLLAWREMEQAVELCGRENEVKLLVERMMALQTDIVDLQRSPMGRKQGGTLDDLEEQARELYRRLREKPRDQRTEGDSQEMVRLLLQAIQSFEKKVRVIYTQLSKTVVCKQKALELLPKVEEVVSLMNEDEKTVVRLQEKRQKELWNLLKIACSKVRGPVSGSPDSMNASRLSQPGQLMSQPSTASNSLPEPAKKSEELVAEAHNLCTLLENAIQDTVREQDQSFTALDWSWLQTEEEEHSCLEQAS
# [10] = molecular target: Mitogen-activated protein kinase 10 (Mus musculus) (UniProt Q61831); test: Binding affinity to JNK3 in protein lysate of LPS-stimulated mouse J774A.1 cells assessed as protein degradation in presence of pronase at 10 to 40 uM measured after overnight incubation by immunoblotting based drug affinity responsive target stability (DARTS) assay; type: subcellular; details: J774.1, dose 10-40 µM
# [11] = system: Mus musculus; test: Antiinflammatory activity against LPS-induced acute lung injury C57 mouse model assessed as increase in IkappaBalpha level in lung tissue at 40 mg/kg, po thrice at 12 hrs interval followed 30 mins treated with LPS by Western blot analysis; type: functional, organism-based; details: time 36.5 hrs
# [12] = Subacute toxicity in ICR mouse assessed as pathological change in heart at 500 to 100 mg/kg, IG measured for 10 days by hematoxylin and eosin dye based light microscopy; type: organism-based; details: in vivo, po, 240 h, dose 500-100 mg/kg, time 10 day
# [13] = Subacute toxicity in ICR mouse assessed as pathological change in kidney at 500 to 100 mg/kg, IG measured for 10 days by hematoxylin and eosin dye based light microscopy; type: organism-based; details: in vivo, po, 240 h, dose 500-100 mg/kg, time 10 day
# [14] = Cmax in Sprague-Dawley rat at 10 mg/kg, po measured upto 24 hrs by UPLC-MS/MS analysis; type: ADME, organism-based; set-up: time < 24 hrs, dose 10 mg/kg, route po; details: in vivo
# [15] = Oral bioavailability n Sprague-Dawley rat at 10 mg/kg measured upto 24 hrs by UPLC-MS/MS analysis; type: ADME, organism-based; details: in vivo
# [16] = AUC (0 to t) in Sprague-Dawley rat at 10 mg/kg, iv measured upto 24 hrs by UPLC-MS/MS analysis; type: ADME, organism-based; set-up: dose 10 mg/kg, time < 24 hrs, route iv; details: in vivo
# [17] = Half life in Sprague-Dawley rat at 10 mg/kg, iv measured upto 24 hrs by UPLC-MS/MS analysis; type: ADME, organism-based; details: in vivo
# [18] = Cmax in Sprague-Dawley rat at 10 mg/kg, iv measured upto 24 hrs by UPLC-MS/MS analysis; type: ADME, organism-based; set-up: dose 10 mg/kg, time < 24 hrs, route iv; details: in vivo
# [19] = system: THP-1; test: Antiinflammatory activity against human THP-1 cells assessed as inhibition of LPS-stimulated TNFalpha release measured after 30 mins by ELISA; type: functional; details: 0.5 h
# Chain of Mitogen-activated protein kinase 10 (Mus musculus) (Q61831 whole entry): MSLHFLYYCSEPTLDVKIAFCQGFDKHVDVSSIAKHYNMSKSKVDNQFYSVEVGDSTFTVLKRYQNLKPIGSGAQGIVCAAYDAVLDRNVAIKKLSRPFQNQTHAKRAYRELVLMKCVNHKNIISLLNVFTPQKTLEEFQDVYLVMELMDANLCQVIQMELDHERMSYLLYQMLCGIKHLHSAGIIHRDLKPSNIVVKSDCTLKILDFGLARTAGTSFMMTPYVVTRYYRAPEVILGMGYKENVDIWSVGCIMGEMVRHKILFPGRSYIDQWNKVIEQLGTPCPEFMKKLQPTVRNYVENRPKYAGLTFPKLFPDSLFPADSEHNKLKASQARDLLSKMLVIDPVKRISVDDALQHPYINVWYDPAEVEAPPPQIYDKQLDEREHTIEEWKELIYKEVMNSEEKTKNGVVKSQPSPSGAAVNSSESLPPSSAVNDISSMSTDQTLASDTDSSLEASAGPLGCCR
# Chain of Transcription factor p65 (Mus musculus) (Q04207 whole entry): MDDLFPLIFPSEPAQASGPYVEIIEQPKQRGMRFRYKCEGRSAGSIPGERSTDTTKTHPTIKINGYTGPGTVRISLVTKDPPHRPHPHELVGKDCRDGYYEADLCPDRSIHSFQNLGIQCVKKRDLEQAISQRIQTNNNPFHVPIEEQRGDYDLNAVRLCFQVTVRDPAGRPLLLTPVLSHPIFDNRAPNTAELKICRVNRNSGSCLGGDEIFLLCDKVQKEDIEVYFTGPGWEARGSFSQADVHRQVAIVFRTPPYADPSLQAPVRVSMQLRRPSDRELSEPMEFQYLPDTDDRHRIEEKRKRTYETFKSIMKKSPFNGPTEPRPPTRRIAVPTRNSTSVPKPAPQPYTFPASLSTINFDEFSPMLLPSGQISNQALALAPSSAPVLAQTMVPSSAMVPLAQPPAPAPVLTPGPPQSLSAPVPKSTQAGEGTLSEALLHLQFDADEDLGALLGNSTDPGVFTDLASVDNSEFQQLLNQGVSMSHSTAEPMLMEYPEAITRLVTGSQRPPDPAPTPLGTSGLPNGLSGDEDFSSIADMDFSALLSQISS
# Chain of Mitogen-activated protein kinase 9 (P45984 whole entry, looked up): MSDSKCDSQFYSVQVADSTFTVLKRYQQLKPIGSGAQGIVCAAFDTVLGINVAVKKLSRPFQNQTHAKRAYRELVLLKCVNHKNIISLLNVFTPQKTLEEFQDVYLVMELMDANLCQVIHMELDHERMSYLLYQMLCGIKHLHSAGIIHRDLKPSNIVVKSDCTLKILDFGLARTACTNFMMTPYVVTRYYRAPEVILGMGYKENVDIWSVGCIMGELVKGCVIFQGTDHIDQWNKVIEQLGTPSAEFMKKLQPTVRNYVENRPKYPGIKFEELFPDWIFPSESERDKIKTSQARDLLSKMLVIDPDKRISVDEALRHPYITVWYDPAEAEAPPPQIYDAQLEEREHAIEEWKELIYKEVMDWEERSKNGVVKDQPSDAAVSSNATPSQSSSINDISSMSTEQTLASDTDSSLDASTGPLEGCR
smiles,measurement,setting,value
COc1cc2nccc(Oc3ccc(NC(=O)c4nn(-c5ccc(C)cc5)c(=O)cc4C)cc3)c2cc1OC,inhibition at 10 µM,[1],71.5%
same,Activity,[2],Dose-Dependent Effect
same,Activity,[3],Dose-Dependent Effect
same,Activity,[4],Active
same,Activity,[5],Active
same,inhibition,[6],Active
same,inhibition,[7],64.8%
same,inhibition,[8],8.85%
same,inhibition,[9],-3.77%
same,Activity,[10],inactive
same,Activity,[11],Active
same,Activity,[12],Non-Toxic
same,Activity,[13],Non-Toxic
same,Cmax,[14],1870 ng/mL
same,F,[15],30.74%
same,AUCt,[16],2995.673 ng·h/mL
same,half-life,[17],1.15 h
same,Cmax,[18],1460 ng/mL
same,IC50,[19],1760 nM
